Source: patent US20060217340A1, “Methods and products for treating hypertension by modulation of TRPC3 channel activity” (University of Vermont and State Agricultural College, priority 2005, published 2006)

Assays:
[1] = test system: pressurized rat cerebral arteries; test: Arterial diameter recordings (constriction) in pressurized cerebral arteries; format: cell-based
Description: (§1) Oligodeoxynucleotide Sequences and Reverse Permeabilization. TRPC6 sense and antisense oligodeoxynucleotides (ODN's) were designed as previously described (Welsh et al 2002 Circ Res 90, 248-250) and were as follows: sense, 5′-[…]-3′ (SEQ ID: 3) and 5′-GCACACGCAGCCTCTTCAC-3′ (SEQ ID: 4) antisense, 5′-[…]-3′ (SEQ ID: 5) and 5′-[…]-3′ (SEQ ID: 6). TRPC3 sense and antisense ODN's were designed based on the rat TRPC3 gene (Ohki et al 2000 J Biol Chem 275: 39055-39060) and are as follows: sense, 5′-[…]-3′ (SEQ ID: 7) and 5′-[…]-3′ (SEQ ID: 8); anti-sense, 5′-[…]-3′ (SEQ ID: 9) and 5′-[…]-3′ (SEQ ID: 10). The last five bases on the 5′ and 3′ end were phosphorothioated in order to limit ODN degradation. For some experiments fluoroscein-isothiocyanate was conjugated to the 5′ end to allow for histological assessment of cellular uptake of the ODNs. All ODNs were synthesized and HPLC purified commercially by Qiagen (Alameda, Calif., USA). Sense and antisense ODN's (2 μM) were introduced into the arterial SMs using a reversible permeabilization procedure (Lesh et al 1995 Circ Res 77,220-230)). The arterial segments were then organ cultured for 3 days in D-MEM/F-12 culture media with L-glutamine (2 mM), penicillin (50 units/ml) and streptomycin (50 μg/ml) prior to use.
Diameter and membrane potential recordings. Endothelial cell denuded artery segments were mounted on glass pipettes in an arteriograph chamber (Living Systems, Burlington, Vt., USA), pressurized to 20 mmHg (with no flow), and superfused with warm (37° C.), gassed (95% 02/5% CO2) physiological saline solution (PSS) containing (in mM): 119 NaCl, 4.7 KCl, 24 NaHCO3, 0.2 KH2PO4, […], 1.2 MgSO4, 1.6 CaCl2, and 10.6 glucose, pH 7.4. In experiments using Ca^2+-free PSS, CaCl2 was omitted and 3 mM EGTA and 30 μM diltiazem added. In experiments with diacylglycerol induction, 300 μM of the diacylglycerol analogue OAG (1-oleyol-2-acetyl-sn-glycerol) was added. The endothelium was removed as previously described (Sun et al 1993 Endothelium 1, 115-122). To verify endothelial cell removal the arteries were pressurized to 60 mmHg and allowed to develop myogenic tone prior to exposing the vessels to 1 μM UTP. Absence of a dilation or biphasic constrictor response to 1 μM UTP indicated successful endothelial cell removal (Marelli 2001 Am J Physiol Heart Cir Physiol 281, H1759-H1766; Miyagi et al 1996 Br J Pharmacol 118, 847-856). […] Membrane potential was measured by inserting a sharp glass electrode (≈100 MΩ resistance) containing 0.5M KCl into the vessel wall. The criteria for successful vascular smooth muscle cell impalement were: (1) a sharp negative Vm deflection on entry; (2) a stable potential for at least 1 minute after entry; and (3) a sharp positive Vm deflection upon removal. Measurements were made using an electrometer (World Precision Instruments) and the data were recorded via computer using Axotape and Dataq software. Arterial diameter was measured using a video dimension analyzer (IonOptix Corporation; Milton, Mass.).
Statistical analysis. Data are expressed as means±SEM, and n indicates the number of animals. Changes in arterial diameter were measured as a percent constriction calculated as follows: [formula]

cerebral artery SMCs = test: Membrane potential recordings in pressurized cerebral arteries; format: cell-based, rat
Description: as §1
Diameter and membrane potential recordings. Endothelial cell denuded artery segments were mounted on glass pipettes in an arteriograph chamber (Living Systems, Burlington, Vt., USA), pressurized to 20 mmHg (with no flow), and superfused with warm (37° C.), gassed (95% 02/5% CO2) physiological saline solution (PSS) containing (in mM): 119 NaCl, 4.7 KCl, 24 NaHCO3, 0.2 KH2PO4, […], 1.2 MgSO4, 1.6 CaCl2, and 10.6 glucose, pH 7.4. In experiments using Ca^2+-free PSS, CaCl2 was omitted and 3 mM EGTA and 30 μM diltiazem added. In experiments with diacylglycerol induction, 300 μM of the diacylglycerol analogue OAG (1-oleyol-2-acetyl-sn-glycerol) was added. The endothelium was removed as previously described (Sun et al 1993 Endothelium 1, 115-122). To verify endothelial cell removal the arteries were pressurized to 60 mmHg and allowed to develop myogenic tone prior to exposing the vessels to 1 μM UTP. Absence of a dilation or biphasic constrictor response to 1 μM UTP indicated successful endothelial cell removal (Marelli 2001 Am J Physiol Heart Cir Physiol 281, H1759-H1766; Miyagi et al 1996 Br J Pharmacol 118, 847-856). Arterial diameter or membrane potential (Vm) of sense and anti-sense treated arteries was measured in the absence (control) or presence of UTP (concentration range: 0.1 to 10 μM). Membrane potential was measured by inserting a sharp glass electrode (≈100 MΩ resistance) containing 0.5M KCl into the vessel wall. The criteria for successful vascular smooth muscle cell impalement were: (1) a sharp negative Vm deflection on entry; (2) a stable potential for at least 1 minute after entry; and (3) a sharp positive Vm deflection upon removal. Measurements were made using an electrometer (World Precision Instruments) and the data were recorded via computer using Axotape and Dataq software. Arterial diameter was measured using a video dimension analyzer (IonOptix Corporation; Milton, Mass.).

[2] = test system: pressurized rat cerebral arteries; test: Arterial wall Ca2+ concentration measurement (FURA-2) in isolated arteries; format: cell-based; conditions: for effect on arterial wall Ca2+ or vessel diameter: absence of extracellular Ca2+
Experimental: Diameter and membrane potential recordings. […] In experiments using Ca^2+-free PSS, CaCl2 was omitted and 3 mM EGTA and 30 μM diltiazem added. In experiments with diacylglycerol induction, 300 μM of the diacylglycerol analogue OAG (1-oleyol-2-acetyl-sn-glycerol) was added. […] To verify endothelial cell removal the arteries were pressurized to 60 mmHg and allowed to develop myogenic tone prior to exposing the vessels to 1 μM UTP. […] Arterial diameter or membrane potential (Vm) of sense and anti-sense treated arteries was measured in the absence (control) or presence of UTP (concentration range: 0.1 to 10 μM). Membrane potential was measured by inserting a sharp glass electrode (≈100 MΩ resistance) containing 0.5M KCl into the vessel wall. […] Measurements were made using an electrometer (World Precision Instruments) and the data were recorded via computer using Axotape and Dataq software. Arterial diameter was measured using a video dimension analyzer (IonOptix Corporation; Milton, Mass.).
Ca^2+ concentration measurement in isolated arteries. Mounted arteries were equilibrated in 1.6 m M PSS for 40 minutes at 37° C. (pH 7.4) prior to loading the vascular smooth muscle cells with the Ca^2+-sensitive fluorescent dye, FURA-2. To load the cells, the 1.6 mM PSS was gradually replaced over 5 minutes with HEPES solution (25° C., pH 7.4). A total of 40 μL of a premixed 100 μM FURA-2-acetoxymethyl ester solution (100 μg FURA-2, 200 μL Pluronic acid, 800 μL DMSO) was added directly to the HEPES to give a final concentration of 2 μM FURA-2 AM. Loading continued in the dark at 25° C. (pH 7.4) for 40 minutes. At the end of the loading period, the HEPES was replaced with 1.6 mM PSS (35° C., pH 7.4) and 30 minutes was allowed for complete de-esterification of the FURA-2 AM before [Ca^2+]c measurements were made. FURA-2 fluorescence was measured using a photomultiplier system (IonOptix Corporation; Milton, Mass., USA) in which background-corrected ratios of the 510-nm emission from arteries alternatively excited at 340 and 380 nm were obtained at a sampling rate of 5 Hz.

[3] = Gd3+ given prior to re-introduction of extracellular Ca2+
[4] = OAG, Sprague Dawley, WKY and SHR rats
[5] = 30 μM UTP in PSS, first exposure
[6] = in the presence of UTP, steady state
[7] = 1 μM nimodipine, extracellular Ca2+ re-introduced in the presence of UTP
[8] = 2 μM thapsigargin, presence of UTP, n=3

In the case of “5′-GGAGTTCAGACTGGCTAGGG-3′ (SEQ ID: 5) and 5′-GCACACGCAGCCTCCTTCAC-3′ (SEQ ID: 6) (DNA, backbone not given here; further chemistry not fully specified) [TRPC6 antisense, TRPC6 antisense oligodeoxynucleotides designed as previously described (Welsh et al 2002)]”, the magnitude of constriction ([1]; increasing concentrations of UTP) is reported as “did not affect” and the “UTP-induced depolarization, TRPC6 antisense- versus sense-treated group” value (cerebral artery SMCs; exposure to UTP) is reported as “no difference”.

In the case of `[Gd+3]` [Gd^3+], the “effect on vasoconstriction after Ca2+ return in the presence of UTP” value ([1]; 30 μM Gd3+, nimodipine present) is reported as “reverses”, the “vasoconstriction in response to UTP” value [1, 3] is reported as “nor did vasoconstriction occur” and the “effect on increase in arterial wall Ca2+ after Ca2+ return in the presence of UTP” value ([2]; 30 μM Gd3+, nimodipine present) is reported as “reverses”. For the same compound, the “arterial wall Ca2+ response to UTP” value [2, 3] was “did not increase”.

`CCCCCCCC/C=C\CCCCCCCC(=O)OC[C@H](CO)OC(C)=O` [OAG, 1-oleoyl-2-acetyl-sn-glycerol] was tested, and the “constriction of arteries from SHR compared with normotensive rats” value [1, 4] was “significantly larger increases” and the “increase in calcium concentration, arteries from SHR compared with normotensive rats” value [2, 4] was “significantly larger increases”.

For `O=c1ccn([C@@H]2O[C@H](COP(=O)(O)OP(=O)(O)OP(=O)(O)O)[C@@H](O)[C@H]2O)c(=O)[nH]1` [UTP, uridine triphosphate], the “sustained decrease in lumen diameter” value [1, 5] was 49±4%, the “vessel response in Ca2+ free PSS” value ([1]; continued presence of UTP) was “completely relax” and the “decrease in lumen diameter (vasoconstriction) after returning extracellular Ca2+” value [1, 6] was 48±5%. The “initial peak increase in arterial wall Ca2+” value ([2]; 30 μM UTP in PSS containing Ca2+, n=8) was 291 ± 45 nM, the “steady state arterial wall [Ca2+]” value [2, 5] was 145 ± 10 nM and the “effect on arterial wall Ca2+ or vessel diameter” value [2] was “neither UTP (FIG. 11 and FIG. 12) nor caffeine (FIG. 11A) affected”. The “arterial wall [Ca2+] in Ca2+ free PSS” value ([2]; continued presence of UTP) was “decline below the resting level”, the “arterial wall Ca2+ after returning extracellular Ca2+” value [2, 6] was 139 ± 15 nM and the “depolarization of arterial SMCs” value (cerebral artery SMCs; micromolar concentrations of UTP) was “approximately 20 mV”.

In the case of `Cn1c(=O)c2c(ncn2C)n(C)c1=O` [caffeine], the “% constriction” value ([1]; 10 mM caffeine, PSS containing Ca2+, transient) is reported as 31±6%, the “peak [Ca2+]c” value ([2]; 10 mM caffeine, PSS containing Ca2+) is reported as 227 ± 42 nM and the “effect on arterial wall Ca2+ or vessel diameter” value [2] is reported as “neither UTP (FIG. 11 and FIG. 12) nor caffeine (FIG. 11A) affected”.

With `COCCOC(=O)C1=C(C)NC(C)=C(C(=O)OC(C)C)C1c1cccc([N+](=O)[O-])c1` (stereo not shown) [nimodipine] the UTP-induced vasoconstriction [1, 7] was 29±3%, the “UTP-induced increase in arterial wall Ca2+” value [2, 7] was 94 ± 10 nM and the “share of extracellular Ca2+ influx entering through the L-type Ca2+ channel” value ([2]; re-admission of Ca2+ in the presence of UTP) was “about 30%”.

With `C/C=C(/C)C(=O)O[C@H]1C(C)=C2[C@H]([C@@H]1OC(=O)CCCCCCC)[C@@](C)(OC(C)=O)C[C@H](OC(=O)CCC)[C@@]1(O)[C@H]2OC(=O)[C@@]1(C)O` [thapsigargin] the “diameter decrease when extracellular Ca2+ reintroduced” value [1, 8] was 39±6% and the “arterial wall Ca2+ when extracellular Ca2+ reintroduced” value [2, 8] was 116 ± 29 nM.
